Experimental data: patent US20150087053A1, “COMPOSITIONS AND METHODS FOR INCREASING THE EXPRESSION AND SIGNALLING OF PROTEINS ON CELL SURFACES” (THE JOHNS HOPKINS UNIVERSITY, priority 2013, published 2015)
“Also recorded” adds a separate entry of the source.

Tests used:
mOREG = biological target: T1, mOREG (Mus musculus, UniProt Q920P2); experiment: CRE luciferase reporter assay (Firefly:Renilla ratio), mOREG constructs; type: cell-based, murine; conditions: Rho-mOREG, Lucy-mOREG, no RTP1S, 100-300 μM eugenol
T1 construct: The mOR-EG full-length construct, containing N-terminal Flag/Rho tags; only in the L-EG and L-R-EG constructs) (N, cleaved yes); expressed in transfected cells; host or cells: HEK293T
T1 sequence (Q920P2 1-313): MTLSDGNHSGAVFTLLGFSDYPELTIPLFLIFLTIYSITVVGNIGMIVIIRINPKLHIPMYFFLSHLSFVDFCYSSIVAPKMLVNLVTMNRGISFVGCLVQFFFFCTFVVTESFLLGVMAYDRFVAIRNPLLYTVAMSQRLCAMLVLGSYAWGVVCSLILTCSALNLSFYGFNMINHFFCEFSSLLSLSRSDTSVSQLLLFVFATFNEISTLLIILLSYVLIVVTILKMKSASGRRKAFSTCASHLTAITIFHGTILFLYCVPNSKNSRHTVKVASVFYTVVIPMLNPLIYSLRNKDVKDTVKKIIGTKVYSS
Method: The luciferase assay was performed as previously described. Briefly, ORs were transfected into HEK293T cells along with constructs encoding for CREB-dependent luciferase (Firefly) and a constitutively expressed luciferase (Renilla). OR activation leads to a rise in cAMP which drives an increase in Firefly luciferase expression. Firefly activity is normalized to the activity of the Renilla luciferase to control for variation in cell number and transfection efficiency. Data were collected using a FLUOstar Omega automated platereader (BMG LabTech, Cary, N.C.). For some experiments, RTP1S was also transfected.
One-way ANOVA analysis followed by the Student-Newman Keuls test was performed on the luciferase reporter assay to compare the doses of isovaleric acid (0.1-5 mM) or eugenol (100-300 μM) to the non-treated control (0 μM). As each condition was performed in triplicate, the analyses were done with an n=3, and P values ≦0.05 were deemed significant. One-way ANOVE followed by Student-Newman Keuls was also used to analyze the surface expression data in FIG. 7. […]
As mOREG is one of the ORs that reach the cell surface under every condition tested, we expressed the OR with and without the Lucy and Rho tags and assessed its response to eugenol.

Olfr691 = biological target: T2, Olfr691 (Mus musculus, UniProt Q8VGW5); experiment: CRE luciferase reporter assay (Firefly:Renilla ratio), Olfr691 constructs; conditions: 0.1-5 mM isovaleric acid
T2 sequence (Q8VGW5 1-322): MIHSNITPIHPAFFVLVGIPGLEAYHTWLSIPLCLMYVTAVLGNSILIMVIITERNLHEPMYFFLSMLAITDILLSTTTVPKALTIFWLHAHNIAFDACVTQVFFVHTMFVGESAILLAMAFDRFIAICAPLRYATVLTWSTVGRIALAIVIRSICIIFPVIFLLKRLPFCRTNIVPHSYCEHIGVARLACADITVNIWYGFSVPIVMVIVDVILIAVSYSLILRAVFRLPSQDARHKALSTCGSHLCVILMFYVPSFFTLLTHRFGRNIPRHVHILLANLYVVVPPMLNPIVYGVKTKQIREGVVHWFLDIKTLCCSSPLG

SMILES	OR activation (Firefly:Renilla ratio) (mOREG)	OR activation (Firefly:Renilla ratio) (Olfr691; Lucy-Rho-Olfr691 with and without RTP1S)	OR activation (Firefly:Renilla ratio) (Olfr691; Rho-Olfr691 co-expressed with RTP1S)	OR activation (Firefly:Renilla ratio) (Olfr691; Rho-Olfr691 without RTP1S)
C=CCc1ccc(O)c(OC)c1 [eugenol]	all concentrations of eugenol significantly activated; also recorded: dose-dependent activation	–	–	–
CC(C)CC(=O)O [isovaleric acid]	–	responded to isovaleric acid in a dose-dependent manner	dose-dependent increase in the Firefly:Renilla ratio	no concentrations of isovaleric acid activated R-691; also recorded: not significantly activated at any concentration
